Laboratory results reported in US4673670A, “N^6 -acenaphthyl adenosines and analogs thereof” (Warner-Lambert Company, priority 1986, dated 1987).

System: conscious rat
Experiment: Antihypertensive evaluation (AHP3): aortic blood pressure and heart rate from conscious rats
Assay type: in vivo
Conditions: hour 1
Description: This test procedure is described in the following paragraphs.
A Method for the Direct Monitoring of Aortic Blood Pressure and Heart Rate from Conscious Rats
The continuous monitoring of pulsatile blood pressure (BP) from unrestrained conscious rats surgically equipped with polyethylene cannulas was accomplished by means of a computer assisted data capture scheme (CADCS). The basic elements of the methodology are the cannulation procedure and the CADCS.
Cannulation Procedure: Rats were anesthetized with Telazol (1:1 tiletamine HCl and zolazepam HCl); 20-40 mg/kg IM and the descending aorta exposed via a midline incision. Cannulas fabricated from polyethylene tubing were inserted into the aorta via an undersized puncture hole below the renal arteries. The puncture hole was made by a 23 G disposable needle with a section of the aorta clamped off above and below the puncture site. The cannulas, consisting of a PE100 (0.86 mm ID) body and a PE50 (0.58 mm ID) tip, were attached to a trocar, inserted through the psoas muscle, and passed subcutaneously along the midline of the back and externalized between the ears. […]
CADCS: The pulsatile blood pressure and heart rate of each of 32 rats was monitored every minute by means of two in-laboratory microcomputers communicating directly with a data concentrator computer. […]

SMILES: OC[C@H]1O[C@@H](n2cnc3c(NC4Cc5cccc6cccc4c56)ncnc32)[C@H](O)[C@@H]1O (some centres unmarked) [Example 1, N^6 -Acenaphthyladenosine]
- MAP (mean arterial pressure) decrease (30 mg/kg, ↓ = decrease): 30%

SMILES: OC[C@H]1O[C@@H](n2cnc3c(NCC4=Cc5cccc6cccc4c56)ncnc32)[C@H](O)[C@@H]1O [Example 2, N^6-(1-acenaphthylenylmethyl)adenosine]
- HR (heart rate) increase (10 mg/kg, ↑ = increase): 0%
